For assay [1], the target named is human JAK1 (a.a. 837-1142) (Homo sapiens, UniProt P23458). The assay is described as follows: In vitro JAK kinase assay (HTRF), JAK1. Type of assay: biochemical. Conditions: 1 mM ATP; read-out: JAK1 IC50. For orientation: TR-FRET usually uses a lanthanide donor and a delayed reading to cut background.
Assay [2] concerns the target human JAK2 (a.a. 828-1132) (Homo sapiens (Human), UniProt O60674). The assay can be described thus: In vitro JAK kinase assay (HTRF), JAK2. Type of assay: biochemical. To be noted: IC50 ratio, 1 mM ATP.
In assay [3] the test system is Pfeiffer cells. The assay can be described thus: Western blot analysis of Pfeiffer cells. Type of assay: cell-based, human. To be noted: for STAT3 phosphorylation / pAKT: 4 hours, then IL-10 for 15 minutes. On the procedure:
The following materials and methods were used in the Western blot analysis infra. Cells (5 million) were lysed in a 300 μl volume of lysis buffer. Soluble fractions were collected by centrifugation. 25 μl of cell lysate were loaded into Tris-Glycine polyacrylamide gels and subjected to electrophoresis. The proteins were transferred into nitrocellulose membrane and probed with antibodies from Cell Signaling Technology for the following proteins: phospho-Stat3 Y705, phospho-Akt 5473, pim1, pim2, pim3, c-myc, phospho-p70S6K, phosho-S6, phospho-Bad S112 and actin.
IL6 and IL10 promote cell survival through the expression of Pim2, which is dependent on JAK1 activity.
Extracts were analyzed by Western blot for pAKT and pSTAT3.
On the technique in general: Immunoblotting shows a protein as a band on a membrane.

For assay [4], the system named is Pfeiffer cells. The assay is described as follows: Cell proliferation assay in Pfeiffer cells. Conditions: for IC50: Homo sapiens, Pfeiffer, 72 h, Pfeiffer cells, 3 days, read-out: IC50, cell growth. In kind it is cell-based, human.
Method: Diffuse large B cell lymphoma cells were seeded at 2000 cell/well in 96 well culture plates in the absence or presence of 10 ng/ml IL10. Compounds were added to these cells after dilution in DMSO first, followed by dilution in culture medium (4× concentration). The cells were cultured in an incubator for 3 days with 5% CO2. Cell proliferation was assessed using the Cell titer-glow assay (Promega, Madison, Wis.).
Assay [5] deals with Pfeiffer cells. The assay is described as follows: Annexin-V staining of Pfeiffer cells (apoptosis). Type of assay: cell-based, human. To be noted: 3 days, 10% FBS + IL10, Compound 16 at 1 μM.
In a further assay the target is PI3Kδ (p110δ/p85α) (Homo sapiens (Human), UniProt O00329). The assay can be described thus: PI3Kδ scintillation proximity assay. In kind it is biochemical. To be noted: 20 μM ATP.
For assay [6], the system named is Pfeiffer human tumor xenograft. The assay can be described thus: Pfeiffer model of lymphoma (human tumor xenograft in SCID mice). Type of assay: in vivo, mouse. On the procedure:
Female SCID mice, (5 to 8 weeks of age, Charles River Laboratories, Wilmington, Mass.) were inoculated with 1×10^7 tumor cells (Pfeiffer, ATCC #CRL-2632, Manassas, Va.) and matrigel (BD Biosciences #354234) in 0.2 mL sterile saline. The inoculation was performed subcutaneously on the flank. Tumor tissue fragments (approximately 3 mm×3 mm) were collected 3 to 6 weeks after the inoculation of cultured cells and implanted subcutaneously in lieu of cellular inoculation. Tissue fragments were implanted as solid pieces using blunt-tip forceps. The treatment of tumor bearing mice was started 15 to 25 days after tumor inoculation, depending upon the tumor size. Animals were sorted to obtain roughly equivalent mean tumor volumes in each group. Minimum mean tumor volume in all groups was 150 mm3 on the first day of treatment and groups consisted of 7 animals. Experimental therapeutic agent, Example 347, was administered to mice orally (PO). Treatment frequency was 2 times daily for a minimum of 14 days for efficacy. The size of subcutaneous tumors was measured 2 to 3 times weekly using a digital caliper. The tumor volume was calculated by measuring the tumor in 2 dimensions and utilizing the equation: Volume=[Length×(Width2)]/2; where the larger number was length, and the smaller number width. If multiple tumors were formed, the final volume was the sum of the individual tumors subject to the same equation: eg, 2 tumors; Volume={[L1×(W1)2]/2}+{[L2×(W2)2]/2}. Effects on tumor growth were reported as percent tumor growth inhibition (% TGI). Percent TGI was calculated with the equation: (1−(Tx vol./control vol.))*100, where control volume was the vehicle or untreated tumor volume on a given day, and Tx volume was any treatment group tumor volume on that same day. Statistical differences between treatment and vehicle controls were assessed using ANOVA: Single Factor test.
Compound 32c (Table 2 supra) was evaluated as a single agent in the Pfeiffer human tumor xenograft model of diffuse large B-cell lymphoma, a subtype of NHL. […] Therefore, a tumor model was established based on subcutaneous inoculation of tumor cells into immune compromised SCID mice and tumor-bearing mice received twice daily oral doses of vehicle or Compound 32c at 0.3, 1, 3, or 10 mg/kg for 14 days.
(In general: In xenograft studies the graft and the host belong to different species.)

The mark [7] stands for this setting: 10% FBS + IL10, ATP readout, Compound 16 at 1 μM in combination.

Read-outs that look alike come from different tables or passages of the source.

Usually IC50 stands for the concentration that inhibits the measured activity by half.

PI3Kδ (p110δ/p85α), sequence (O00329 whole entry): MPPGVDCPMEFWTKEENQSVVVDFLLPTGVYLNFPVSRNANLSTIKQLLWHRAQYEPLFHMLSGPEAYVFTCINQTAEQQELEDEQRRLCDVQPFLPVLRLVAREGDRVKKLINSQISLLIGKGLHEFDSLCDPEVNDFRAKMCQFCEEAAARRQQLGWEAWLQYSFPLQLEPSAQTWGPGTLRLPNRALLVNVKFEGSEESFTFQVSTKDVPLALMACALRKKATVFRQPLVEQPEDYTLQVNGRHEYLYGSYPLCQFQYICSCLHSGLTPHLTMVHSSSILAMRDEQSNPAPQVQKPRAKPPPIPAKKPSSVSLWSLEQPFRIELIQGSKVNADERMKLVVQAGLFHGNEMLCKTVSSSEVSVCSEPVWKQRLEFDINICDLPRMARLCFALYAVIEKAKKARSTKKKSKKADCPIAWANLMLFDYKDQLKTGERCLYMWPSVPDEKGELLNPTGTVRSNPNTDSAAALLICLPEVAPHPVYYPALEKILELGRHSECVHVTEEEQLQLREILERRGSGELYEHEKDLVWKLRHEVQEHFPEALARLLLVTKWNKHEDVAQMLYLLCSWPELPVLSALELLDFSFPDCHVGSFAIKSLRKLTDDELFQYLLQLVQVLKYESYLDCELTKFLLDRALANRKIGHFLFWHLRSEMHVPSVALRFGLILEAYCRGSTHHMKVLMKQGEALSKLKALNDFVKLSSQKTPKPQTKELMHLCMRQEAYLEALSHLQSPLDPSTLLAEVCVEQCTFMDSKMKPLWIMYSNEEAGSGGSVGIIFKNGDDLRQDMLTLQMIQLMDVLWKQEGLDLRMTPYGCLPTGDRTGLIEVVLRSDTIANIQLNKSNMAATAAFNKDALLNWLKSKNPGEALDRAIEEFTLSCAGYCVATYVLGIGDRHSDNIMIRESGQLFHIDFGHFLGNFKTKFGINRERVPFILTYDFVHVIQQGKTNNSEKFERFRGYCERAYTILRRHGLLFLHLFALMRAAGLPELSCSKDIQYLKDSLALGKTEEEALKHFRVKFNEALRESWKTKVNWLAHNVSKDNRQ
PI3Kδ (p110δ/p85α), sequence (P27986 whole entry partner): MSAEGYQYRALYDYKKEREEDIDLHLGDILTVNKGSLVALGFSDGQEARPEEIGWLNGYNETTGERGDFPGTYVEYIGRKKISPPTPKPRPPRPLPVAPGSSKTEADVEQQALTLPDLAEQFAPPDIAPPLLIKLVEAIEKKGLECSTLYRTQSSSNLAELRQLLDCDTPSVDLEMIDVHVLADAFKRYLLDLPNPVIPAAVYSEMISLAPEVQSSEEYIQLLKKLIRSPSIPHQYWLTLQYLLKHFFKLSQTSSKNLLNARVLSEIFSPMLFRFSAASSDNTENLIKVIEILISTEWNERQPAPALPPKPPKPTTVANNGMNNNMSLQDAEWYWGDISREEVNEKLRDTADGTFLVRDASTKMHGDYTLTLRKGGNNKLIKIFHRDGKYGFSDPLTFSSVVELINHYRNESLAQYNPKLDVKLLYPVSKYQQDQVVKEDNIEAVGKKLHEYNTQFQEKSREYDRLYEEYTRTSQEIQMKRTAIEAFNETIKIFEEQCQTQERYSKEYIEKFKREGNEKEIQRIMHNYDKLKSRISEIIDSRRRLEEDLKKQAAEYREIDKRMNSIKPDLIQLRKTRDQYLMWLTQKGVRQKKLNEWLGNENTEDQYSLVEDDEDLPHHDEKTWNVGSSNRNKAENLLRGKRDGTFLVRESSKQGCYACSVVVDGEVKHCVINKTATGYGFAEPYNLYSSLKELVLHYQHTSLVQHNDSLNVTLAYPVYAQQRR
human JAK1 (a.a. 837-1142), sequence (P23458 whole entry, looked up): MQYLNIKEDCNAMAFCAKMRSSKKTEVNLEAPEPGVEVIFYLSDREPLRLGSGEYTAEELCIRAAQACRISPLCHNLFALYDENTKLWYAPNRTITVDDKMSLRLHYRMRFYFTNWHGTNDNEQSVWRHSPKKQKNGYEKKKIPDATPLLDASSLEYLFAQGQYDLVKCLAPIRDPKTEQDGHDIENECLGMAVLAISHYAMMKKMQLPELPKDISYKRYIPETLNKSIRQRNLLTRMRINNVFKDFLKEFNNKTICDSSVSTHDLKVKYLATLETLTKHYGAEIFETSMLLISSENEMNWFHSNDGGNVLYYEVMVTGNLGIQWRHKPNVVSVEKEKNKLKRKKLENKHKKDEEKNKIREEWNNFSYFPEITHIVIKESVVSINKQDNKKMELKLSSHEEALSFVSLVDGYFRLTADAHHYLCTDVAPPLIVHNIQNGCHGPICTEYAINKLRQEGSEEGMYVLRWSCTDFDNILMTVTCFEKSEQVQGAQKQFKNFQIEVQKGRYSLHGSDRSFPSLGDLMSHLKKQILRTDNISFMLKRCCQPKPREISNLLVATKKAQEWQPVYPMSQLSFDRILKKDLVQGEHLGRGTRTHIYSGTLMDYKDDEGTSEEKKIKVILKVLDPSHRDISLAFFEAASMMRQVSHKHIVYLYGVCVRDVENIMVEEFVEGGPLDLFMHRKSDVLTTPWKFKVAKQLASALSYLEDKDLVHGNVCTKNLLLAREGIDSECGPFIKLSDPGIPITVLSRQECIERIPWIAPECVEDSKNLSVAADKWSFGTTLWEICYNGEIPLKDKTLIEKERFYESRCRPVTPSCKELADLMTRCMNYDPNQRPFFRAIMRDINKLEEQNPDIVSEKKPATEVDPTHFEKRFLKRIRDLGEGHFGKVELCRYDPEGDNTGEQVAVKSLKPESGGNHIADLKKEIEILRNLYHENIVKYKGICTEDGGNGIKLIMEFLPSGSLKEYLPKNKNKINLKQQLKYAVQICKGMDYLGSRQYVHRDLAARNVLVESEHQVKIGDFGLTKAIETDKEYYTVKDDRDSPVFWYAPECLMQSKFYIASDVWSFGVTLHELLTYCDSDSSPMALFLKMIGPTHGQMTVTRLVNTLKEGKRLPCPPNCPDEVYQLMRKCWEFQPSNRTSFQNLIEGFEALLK
human JAK2 (a.a. 828-1132), sequence (O60674 828-1132): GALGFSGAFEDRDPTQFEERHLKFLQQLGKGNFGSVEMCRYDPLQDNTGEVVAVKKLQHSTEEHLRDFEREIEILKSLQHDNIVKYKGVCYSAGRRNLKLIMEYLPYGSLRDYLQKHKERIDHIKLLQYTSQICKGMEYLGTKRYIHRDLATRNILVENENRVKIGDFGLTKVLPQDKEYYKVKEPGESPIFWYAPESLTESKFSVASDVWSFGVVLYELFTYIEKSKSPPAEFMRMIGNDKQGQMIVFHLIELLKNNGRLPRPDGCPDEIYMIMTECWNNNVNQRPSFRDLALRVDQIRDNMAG
Method for PI3Kδ (p110δ/p85α): [γ-^33P]ATP (10 mCi/mL) was purchased from Perking Elmer (Waltham, Mass.). […] PI3Kδ (p110δ/p85α) was purchased from Millipore (Bedford, Mass.). ATP, MgCl2, DTT, EDTA, MOPS and CHAPS were purchased from Sigma-Aldrich (St. Louis, Mo.). Wheat Germ Agglutinin (WGA) YSi SPA Scintillation Beads was purchased from GE healthcare life sciences (Piscataway, N.J.). The kinase reaction was conducted in polystyrene 384-well matrix white plate from Thermo Fisher Scientific in a final volume of 25 μL. Inhibitors were first diluted serially in DMSO and added to the plate wells before the addition of other reaction components. The final concentration of DMSO in the assay was 0.5%. […] Reactions were initiated by the addition of ATP, the final reaction mixture consisted of 20 μM PIP2, 20 μM ATP, 0.2 μCi [γ-^33P] ATP, 4 nM PI3Kδ. Reactions were incubated for 210 min and terminated by the addition of 40 μL SPA beads suspended in quench buffer: 150 mM potassium phosphate pH 8.0, 20% glycerol. 25 mM EDTA, 400 μM ATP. The final concentration of SPA beads was 1.0 mg/mL. After the plate sealing, plates were shaken overnight at room temperature and centrifuged at 1800 rpm for 10 minutes, the radioactivity of the product was determined by scintillation counting on Topcount (Perking Elmer).

On to `N#CCC1(n2cc(-c3ncnc4[nH]ccc34)cn2)CN(C2CCN(C(=O)c3ccnc(C(F)(F)F)c3F)CC2)C1` [Compound 7, {1-{1-[3-Fluoro-2-(trifluoromethyl)isonicotinoyl]piperidin-4-yl}-3-[4-(7H-pyrrolo[2,3-d]pyrimidin-4-yl)-1H-pyrazol-1-yl]azetidin-3-yl}acetonitrile], for which the IC50 in assay [1] is < 10 nM. In addition, the JAK2/JAK1 in assay [2] is listed as >10. Further, the “IL10-induced expression of Pim2” value in the assay on Pfeiffer cells [3] (24 hours) is recorded as “blocked”.
For `C[C@H](NC(=O)c1cc(F)c(N2CC(CC#N)(n3cc(-c4ncnc5[nH]ccc45)cn3)C2)cc1F)C(F)(F)F` [Compound 16, 4-{3-(cyanomethyl)-3-[4-(7H-pyrrolo[2,3-d]pyrimidin-4-yl)-1H-pyrazol-1-yl]azetidin-1-yl}-2,5-difluoro-N-[(1S)-2,2,2-trifluoro-1-methylethyl]benzamide], the IC50 in assay [1] was < 10 nM; in the assay on Pfeiffer cells [4] (setting [7]), > 1000 nM. In assay [2], the JAK2/JAK1 is reported as >10. Moreover, the STAT3 phosphorylation entry in the assay with Pfeiffer cells [3] is listed as “inhibition”. The pAKT result in the assay on Pfeiffer cells [3] is recorded as “no effect”. The “apoptosis (Annexin-V staining)” value in the assay with Pfeiffer cells [5] is reported as “neither agent alone had a significant effect”.
Take `Cc1csc2nc([C@H](C)Nc3ncnc4[nH]cnc34)c(-c3cccc(F)c3)c(=O)n12` [Compound 28, (S)-7-(1-(9H-purin-6-ylamino)ethyl)-6-(3-fluorophenyl)-3-methyl-5H-thiazolo[3,2-a]pyrimidin-5-one]: the IC50 in the assay with Pfeiffer cells [4] (setting [7]) was found to be 6360 nM; in the assay with Pfeiffer cells [4] (-IL-10, ATP readout), 670 nM. For the same compound, the STAT3 phosphorylation result with Pfeiffer cells [3] is recorded as “did not”. Also, the pAKT result with Pfeiffer cells [3] is listed as “complete inhibition”. Also, the “apoptosis (Annexin-V staining)” value in the assay on Pfeiffer cells [5] was “neither agent alone had a significant effect”.
For `COc1c(C(C)n2nc(C)c3c(N)ncnc32)cc(Cl)c(C#N)c1C1CN(C[C@H](C)O)C1` (stereo partly drawn) [Compound 29, 4-[1-(4-amino-3-methyl-1H-pyrazolo[3,4-d]pyrimidin-1-yl)ethyl]-6-chloro-2-{1-[(2S)-2-hydroxypropyl]azetidin-3-yl}-3-methoxybenzonitrile], the IC50 against PI3Kδ (p110δ/p85α) is < 50 nM.
On the same count and under the same terms, for `COc1c(C(C)n2nc(C)c3c(N)ncnc32)cc(Cl)c(C#N)c1C1CN(CCO)C1` (stereo not shown) [Compound 30, 4-[1-(4-amino-3-methyl-1H-pyrazolo[3,4-d]pyrimidin-1-yl)ethyl]-6-chloro-2-[1-(2-hydroxyethyl)azetidin-3-yl]-3-methoxybenzonitrile] the value was < 50 nM; for `CCOc1c(C(C)n2nc(C)c3c(N)ncnc32)cc(C)c(C#N)c1-c1ccc(C(=O)N(C)C)nc1` (stereo not shown) [Compound 31, 5-{3-[1-(4-amino-3-methyl-1H-pyrazolo[3,4-d]pyrimidin-1-yl)ethyl]-6-cyano-2-ethoxy-5-methylphenyl}-N,N-dimethylpyridine-2-carboxamide], < 50 nM.
Consider `CCOc1c(C(C)n2nc(C)c3c(N)ncnc32)cc(Cl)c(F)c1C1CNC(=O)C1` (stereo not shown) [Compound 32c, 4-{3-[1-(4-amino-3-methyl-1H-pyrazolo[3,4-d]pyrimidin-1-yl)ethyl]-5-chloro-2-ethoxy-6-fluorophenyl}pyrrolidin-2-one], for which the “percent tumor growth inhibition” value in assay [6] (0.3 mg/kg oral twice daily for 14 days) was determined as 22%; in assay [6] (1 mg/kg oral twice daily for 14 days) it was 24%; in assay [6] (3 mg/kg oral twice daily for 14 days), 36%; in assay [6] (10 mg/kg oral twice daily for 14 days), 58%. In addition, the “anti-proliferative effects on Pfeiffer cancer cells” value with Pfeiffer cells [4] (in vitro) is reported as “sensitive”.

(Values after patent US10675284B2, “Treatment of B-cell malignancies by a combination JAK and PI3K inhibitors” (Incyte Corporation, priority 2014, dated 2020).)
